# pIC50: −log10 of the molar value. Read-outs that look alike come from different tables or passages of the source.
# Molecular target: T1, human complement factor D (Homo sapiens, UniProt P00746)
# T1 construct: purchased R&D Systems 1824-SE
# Assay: In vitro enzyme inhibition of human complement factor D (Z-Lys-SBzl/DTNB, A405)
# Type: biochemical
# Description: The ability of the compounds disclosed herein to inhibit human complement factor D inhibitory activity was quantified according to the 12-step protocol provided below. • 1. Prepare assay buffer: 50 mM Tris/HCl, pH 7.5, 1 M NaCl. • 2. […] Then dilute the serial concentrations of Nafamostat Mesilate 20-fold in assay buffer. • 3. […] 0.5% DMSO was in each well finally. • 4. […] Add 10 μl diluted test compounds duplicated into the 96-well plate. […] 0.5% DMSO was in each well finally. • 6. Dilute 20 mM substrate Z-Lys-SBzl (Bachem, Cat# M-1300) to 200 μM in assay buffer with 200 μM DTNB (Sigma, Catalog# D8130). • 7. […] Add 40 μl diluted Complement Factor D in the 96-well plate. • 8. Positive control well contains Complement Factor D without test compound. Negative control well contains neither Complement Factor D nor test compound. Using assay buffer, bring the total volume of all controls to 50 al. • 9. Pre-incubate the plate for 5 min at room temperature. • 10. Add 50 μl of diluted substrate/DTNB mixture into each well. […] For kinetic reading: Immediately start measuring absorbance (A405 nm) continuously and record data every 30 sec for 60 min. • 12. Data analysis • Inhibition activity of compound was evaluated by IC50. IC50 was calculated according the dose-response curve of compound fitted using GraphPadPrism with “log(inhibitor)-response (variable slope)” equation. • % inhibition was calculated by using following equation:
# [formula] • Mean(NC): The average value of the negative control wells' A405 nm values. • Mean(PC): The average value of the positive control wells' A405 nm values.
# [1] = biochemical assay, substrate Z-Lys-SBzl, read-out: CFD IC50
# T1 sequence (P00746 26-253): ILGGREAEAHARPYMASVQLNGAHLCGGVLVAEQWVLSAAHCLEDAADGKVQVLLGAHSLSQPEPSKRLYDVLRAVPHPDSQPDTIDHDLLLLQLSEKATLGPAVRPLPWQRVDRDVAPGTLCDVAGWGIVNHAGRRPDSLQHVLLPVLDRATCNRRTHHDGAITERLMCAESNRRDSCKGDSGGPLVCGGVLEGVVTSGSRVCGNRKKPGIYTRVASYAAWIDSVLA
SMILES,pIC50 [1],pIC50
"CC(CF)N(CC(=O)NCc1cccc(Cl)c1F)C(=O)Cn1nc(C(N)=O)c2ccccc21 (centres unmarked) [Example 66, 1-(2-((2-((3-chloro-2-fluorobenzyl)amino)-2-oxoethyl)(1-fluoropropan-2-yl)amino)-2-oxoethyl)-1H-indazole-3-carboxamide]",6.00 to 7.00,
"NC(=O)c1nn(CC(=O)N(CC(=O)NCc2cccc(Cl)c2F)Cc2cccnc2)c2ccccc12 [Example 35, 1-(2-((2-((3-chloro-2-fluorobenzyl)amino)-2-oxoethyl)(pyridin-3-ylmethyl)amino)-2-oxoethyl)-1H-indazole-3-carboxamide]",5.00 to 6.00,
"CNCCN(CC(=O)Nc1cccc(Cl)n1)C(=O)Cn1nc(C(N)=O)c2ccccc21 [Example 23, 1-(2-((2-((6-chloropyridin-2-yl)amino)-2-oxoethyl)(2-(methylamino)ethyl)amino)-2-oxoethyl)-1H-indazole-3-carboxamide]",5.00 to 6.00,
"NC(=O)c1nn(CC(=O)N(CC(=O)NCc2cccc(Cl)c2F)C2CC2)c2cc(C(F)(F)F)ccc12 [Example 94, 1-(2-((2-((3-chloro-2-fluorobenzyl)amino)-2-oxoethyl)(cyclopropyl)amino)-2-oxoethyl)-6-(trifluoromethyl)-1H-indazole-3-carboxamide]",6.00 to 7.00,
"NC(=O)c1nn(CC(=O)N(CC(=O)NCc2cccc(Cl)c2F)C2CC2)c2ccc(C(F)(F)F)cc12 [Example 95, 1-(2-((2-((3-chloro-2-fluorobenzyl)amino)-2-oxoethyl)(cyclopropyl)amino)-2-oxoethyl)-5-(trifluoromethyl)-1H-indazole-3-carboxamide]",5.00 to 6.00,
"NC(=O)c1nn(CC(=O)N(CC(=O)NCc2cccc(Cl)c2F)C2CC2)c2c(C(F)(F)F)cccc12 [Example 111, 1-(2-((2-((3-chloro-2-fluorobenzyl)amino)-2-oxoethyl)(cyclopropyl)amino)-2-oxoethyl)-7-(trifluoromethyl)-1H-indazole-3-carboxamide]",> 7.00,
"C[C@@H](C(=O)Nc1cccc(Cl)c1F)N(C)C(=O)Cn1nc(C(N)=O)c2ccccc21 [Example 2, (S)-1-(2-((1-((3-chloro-2-fluorophenyl)amino)-1-oxopropan-2-yl)(methyl)amino)-2-oxoethyl)-1H-indazole-3-carboxamide]",5.00 to 6.00,
"NC(=O)c1nc(CC(=O)N(CC(=O)NCc2cccc(Cl)c2F)C2CC2)n2ccccc12 [Example 42, 3-(2-((2-((3-chloro-2-fluorobenzyl)amino)-2-oxoethyl)(cyclopropyl)amino)-2-oxoethyl)imidazo[1,5-a]pyridine-1-carboxamide]",6.00 to 7.00,
"NC(=O)c1cc(C(F)(F)F)n(CC(=O)N(CC(=O)NCc2cccc(Cl)c2F)C2CC2)n1 [Example 43, 1-(2-((2-((3-chloro-2-fluorobenzyl)amino)-2-oxoethyl)(cyclopropyl)amino)-2-oxoethyl)-5-(trifluoromethyl)-1H-pyrazole-3-carboxamide]",< 5.00,
"NC(=O)c1nn(CC(=O)N(CC(=O)NCc2cccc(Cl)c2F)c2ccccc2)c2ccccc12 [Example 36, 1-(2-((2-((3-chloro-2-fluorobenzyl)amino)-2-oxoethyl)(phenyl)amino)-2-oxoethyl)-1H-indazole-3-carboxamide]",5.00 to 6.00,
"NC(=O)c1nn(CC(=O)N(CC(=O)NCc2cccc(Cl)c2F)C(CCO)C2CC2)c2ccccc12 (centres unmarked) [Example 73, 1-(2-((2-((3-chloro-2-fluorobenzyl)amino)-2-oxoethyl)(1-cyclopropyl-3-hydroxypropyl)amino)-2-oxoethyl)-1H-indazole-3-carboxamide]",5.00 to 6.00,
"CC(=O)c1nc(CC(=O)N(CC(=O)NCc2cccc(Cl)c2F)C2CC2)c2ccccn12 [Example 137, 2-(3-acetylimidazo[1,5-a]pyridin-1-yl)-N-(2-((3-chloro-2-fluorobenzyl)amino)-2-oxoethyl)-N-cyclopropylacetamide]",5.00 to 6.00,
"NC(=O)c1nn(CC(=O)N(CC(=O)NCc2cccc(Cl)c2F)C2CC2)c2cccc(F)c12 [Example 97, 1-(2-((2-((3-chloro-2-fluorobenzyl)amino)-2-oxoethyl)(cyclopropyl)amino)-2-oxoethyl)-4-fluoro-1H-indazole-3-carboxamide]",5.00 to 6.00,
"NC(=O)c1nn(CC(=O)N(CC(=O)NCc2cccc(Cl)c2F)C2CC2)c2cc(Cl)ccc12 [Example 85, 6-chloro-1-(2-((2-((3-chloro-2-fluorobenzyl)amino)-2-oxoethyl)(cyclopropyl)amino)-2-oxoethyl)-1H-indazole-3-carboxamide]",,6.00 to 7.00
"NC(=O)c1nn(CC(=O)N(CC(=O)NCc2cccc(Cl)c2F)C2CC2)c2cc(F)ccc12 [Example 84, 1-(2-((2-((3-chloro-2-fluorobenzyl)amino)-2-oxoethyl)(cyclopropyl)amino)-2-oxoethyl)-6-fluoro-1H-indazole-3-carboxamide]",,6.00 to 7.00

# Second part, led by results:
pIC50 [1],SMILES,pIC50
> 7.00,"NC(=O)c1nn(CC(=O)N(CC(=O)NCc2cccc(Br)c2F)C2CC2)c2ccccc12 [Example 120, 1-(2-((2-((3-bromo-2-fluorobenzyl)amino)-2-oxoethyl)(cyclopropyl)amino)-2-oxoethyl)-1H-indazole-3-carboxamide]",
5.00 to 6.00,"N#Cc1ccc(CNC(=O)CN(C(=O)Cn2nc(C(N)=O)c3ccccc32)C2CC2)c(F)c1Cl [Example 96, 1-(2-((2-((3-chloro-4-cyano-2-fluorobenzyl)amino)-2-oxoethyl)(cyclopropyl)amino)-2-oxoethyl)-1H-indazole-3-carboxamide]",
5.00 to 6.00,"NCc1cc(Cl)c(F)c(CNC(=O)CN(C(=O)Cn2nc(C(N)=O)c3ccccc32)C2CC2)c1 [Example 101, 1-(2-((2-((5-(aminomethyl)-3-chloro-2-fluorobenzyl)amino)-2-oxoethyl)(cyclopropyl)amino)-2-oxoethyl)-1H-indazole-3-carboxamide]",
5.00 to 6.00,"NC(=O)c1nn(CC(=O)N(CC(=O)NCc2ccc(N)cc2F)C2CC2)c2ccccc12 [Example 121, 1-(2-((2-((4-amino-2-fluorobenzyl)amino)-2-oxoethyl)(cyclopropyl)amino)-2-oxoethyl)-1H-indazole-3-carboxamide]",
5.00 to 6.00,"NC(=O)c1nn(CC(=O)N(CC(=O)NCc2cncc(Cl)c2)C2CC2)c2ccccc12 [Example 130, 1-(2-((2-(((5-chloropyridin-3-yl)methyl)amino)-2-oxoethyl)(cyclopropyl)amino)-2-oxoethyl)-1H-indazole-3-carboxamide]",
6.00 to 7.00,"NC(=O)c1nn(CC(=O)N(CC(=O)NCc2cc(F)cc(Cl)c2)C2CC2)c2ccccc12 [Example 103, 1-(2-((2-((3-chloro-5-fluorobenzyl)amino)-2-oxoethyl)(cyclopropyl)amino)-2-oxoethyl)-1H-indazole-3-carboxamide]",
5.00 to 6.00,"NCc1ccc2c(C(N)=O)nn(CC(=O)N(CC(=O)NCc3cccc(Cl)c3F)C3CC3)c2c1 [Example 89, 6-(aminomethyl)-1-(2-((2-((3-chloro-2-fluorobenzyl)amino)-2-oxoethyl)(cyclopropyl)amino)-2-oxoethyl)-1H-indazole-3-carboxamide]",
6.00 to 7.00,"NC(=O)c1nn(CC(=O)N(CC(=O)NCc2cc(Cl)cc3[nH]ncc23)C2CC2)c2ccccc12 [Example 91, 1-(2-((2-(((6-chloro-1H-indazol-4-yl)methyl)amino)-2-oxoethyl)(cyclopropyl)amino)-2-oxoethyl)-1H-indazole-3-carboxamide]",
5.00 to 6.00,"COc1cccc(CNC(=O)CN(C(=O)Cn2nc(C(N)=O)c3ccccc32)C2CC2)c1F [Example 122, 1-(2-(cyclopropyl(2-((2-fluoro-3-methoxybenzyl)amino)-2-oxoethyl)amino)-2-oxoethyl)-1H-indazole-3-carboxamide]",
5.00 to 6.00,"N#Cc1cccc(CNC(=O)CN(C(=O)Cn2nc(C(N)=O)c3ccccc32)C2CC2)c1F [Example 123, 1-(2-((2-((3-cyano-2-fluorobenzyl)amino)-2-oxoethyl)(cyclopropyl)amino)-2-oxoethyl)-1H-indazole-3-carboxamide]",
5.00 to 6.00,"Cc1c(Cl)cccc1CNC(=O)CN(C(=O)Cn1nc(C(N)=O)c2ccccc21)C1CC1 [Example 134, 1-(2-((2-((3-chloro-2-methylbenzyl)amino)-2-oxoethyl)(cyclopropyl)amino)-2-oxoethyl)-1H-indazole-3-carboxamide]",
5.00 to 6.00,"NC(=O)c1nn(CC(=O)N(CC(=O)NCc2cc(Cl)cc3cn[nH]c23)C2CC2)c2ccccc12 [Example 109, 1-(2-((2-(((5-chloro-1H-indazol-7-yl)methyl)amino)-2-oxoethyl)(cyclopropyl)amino)-2-oxoethyl)-1H-indazole-3-carboxamide]",
5.00 to 6.00,"NC(=O)c1nn(CC(=O)N(CC(=O)NCc2cccc(Cl)c2F)C2CCOCC2)c2ccccc12 [Example 29, 1-(2-((2-((3-chloro-2-fluorobenzyl)amino)-2-oxoethyl)(tetrahydro-2H-pyran-4-yl)amino)-2-oxoethyl)-1H-indazole-3-carboxamide]",
< 5.00,"NC(=O)c1nn(CC(=O)N(CC(=O)NCc2cccc(Cl)c2C2CC2)C2CC2)c2ccccc12 [Example 131, 1-(2-((2-((3-chloro-2-cyclopropylbenzyl)amino)-2-oxoethyl)(cyclopropyl)amino)-2-oxoethyl)-1H-indazole-3-carboxamide]",

# — patent US20190292155A1, “THERAPEUTIC INHIBITORY COMPOUNDS” (LifeSci Pharmaceuticals, Inc., priority 2016, published 2019)
